US20200239530A1, “COMPOUNDS AND METHODS OF MODULATING PROTEIN DEGRADATION” (Vividion Therapeutics, Inc., priority 2017, published 2020)

What was measured:
Assay in all cases: Cysteine liganding, probe competition
Type in all cases: binding
[1] = target: T1, GAMT Guanidinoacetate N-methyltransferase (Homo sapiens, UniProt Q14353)
T1 construct: 200 μL of lysate containing 5 mg/ml proteome was treated with 2 μL of 100× compound stock; endogenous in cells
Method in brief: (§1)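 Probe competition in native proteome: 5 mg/ml lysate, compound 1 hr 25° C, then desthiobiotin iodoacetamide (10 mM stock) 1 hr 25° C; acetone ppt, urea/DTT reduction, iodoacetamide alkylation, trypsin, streptavidin pull-down.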

[2] = target: T2, ANAPC7 Anaphase-promoting complex subunit 7 (Homo sapiens, UniProt Q9UJX3)
T2 construct: Cells were resuspended in cold PBS on ice and sonicated with a probe sonicator to achieve lysis; endogenous in cells
Method in brief: as §1

[3] = target: T3, FASTKD5 FAST kinase domain-containing protein 5 (Homo sapiens, UniProt Q7L8L6)
T3 construct: 200 μL of lysate containing 5 mg/ml proteome was treated with 2 μL of 100× compound stock; endogenous in cells
T3 sequence (Q7L8L6 28-764): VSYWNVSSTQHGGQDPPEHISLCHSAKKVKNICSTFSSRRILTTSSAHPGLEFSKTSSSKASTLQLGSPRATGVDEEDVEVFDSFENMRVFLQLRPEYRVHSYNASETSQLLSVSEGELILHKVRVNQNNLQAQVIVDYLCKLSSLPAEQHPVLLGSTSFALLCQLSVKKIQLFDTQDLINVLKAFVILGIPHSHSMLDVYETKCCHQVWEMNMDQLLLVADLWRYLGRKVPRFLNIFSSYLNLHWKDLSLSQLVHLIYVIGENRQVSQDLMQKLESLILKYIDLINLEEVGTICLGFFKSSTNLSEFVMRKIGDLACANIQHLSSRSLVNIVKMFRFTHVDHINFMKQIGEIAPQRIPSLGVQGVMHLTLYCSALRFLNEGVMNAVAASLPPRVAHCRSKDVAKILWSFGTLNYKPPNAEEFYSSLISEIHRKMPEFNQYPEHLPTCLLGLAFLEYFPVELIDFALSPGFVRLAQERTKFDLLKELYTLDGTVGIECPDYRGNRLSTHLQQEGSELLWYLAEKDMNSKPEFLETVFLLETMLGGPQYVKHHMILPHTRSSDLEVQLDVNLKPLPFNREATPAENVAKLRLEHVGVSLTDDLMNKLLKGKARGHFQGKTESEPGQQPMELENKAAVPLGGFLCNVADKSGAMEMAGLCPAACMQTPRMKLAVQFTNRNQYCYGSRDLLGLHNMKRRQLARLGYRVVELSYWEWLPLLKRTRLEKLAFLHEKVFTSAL
Method in brief: as §1

T2 sequence (Q9UJX3 whole entry, one chain of several): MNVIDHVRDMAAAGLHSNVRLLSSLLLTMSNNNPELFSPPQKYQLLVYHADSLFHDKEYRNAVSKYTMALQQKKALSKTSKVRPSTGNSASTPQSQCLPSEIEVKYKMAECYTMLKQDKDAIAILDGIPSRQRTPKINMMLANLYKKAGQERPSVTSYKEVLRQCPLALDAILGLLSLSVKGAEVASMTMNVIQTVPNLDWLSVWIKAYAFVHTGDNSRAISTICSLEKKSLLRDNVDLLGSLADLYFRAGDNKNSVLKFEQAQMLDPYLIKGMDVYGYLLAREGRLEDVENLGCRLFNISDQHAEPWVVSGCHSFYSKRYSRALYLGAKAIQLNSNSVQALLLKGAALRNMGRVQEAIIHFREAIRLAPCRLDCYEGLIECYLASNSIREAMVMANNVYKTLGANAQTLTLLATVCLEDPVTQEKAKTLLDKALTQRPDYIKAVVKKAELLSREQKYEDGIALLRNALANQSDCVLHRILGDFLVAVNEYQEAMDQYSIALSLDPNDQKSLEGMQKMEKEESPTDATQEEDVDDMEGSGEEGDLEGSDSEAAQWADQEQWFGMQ

COc1ccc2c(c1)CCCN2C(=O)CCl [KB02]
Liganded ([1]; GAMT Res# 91, uniprot Q14353): YES | Liganded ([2]; ANAPC7 Res# 329, uniprot Q9UJX3): YES | Liganded ([3]; FASTKD5 Res# 670, uniprot Q7L8L6): YES

O=C(CCl)Nc1cc(C(F)(F)F)cc(C(F)(F)F)c1 [KBO3]
100 Max ([1]; uniprot Q14353): −9.9 | 100 ave ([1]; uniprot Q14353): −25.93 | 500 ave ([1]; uniprot Q14353): 6.05 | 500 Max ([1]; uniprot Q14353, in % (unit assumed)): 16.85 | 100 Max ([2]; uniprot Q9UJX3): 60.9 | 100 ave ([2]; uniprot Q9UJX3): 47.5 | 500 Max ([2]; uniprot Q9UJX3): 73.4 | 500 ave ([2]; uniprot Q9UJX3): 68.4 | 100 Max ([3]; uniprot Q7L8L6): 14.75 | 100 ave ([3]; uniprot Q7L8L6): 14.55 | 500 Max ([3]; uniprot Q7L8L6): 57.23 | 500 ave ([3]; uniprot Q7L8L6): 45.06
